Entries after “also recorded” stand apart in the source; their conditions may differ.
What was measured:
Assay type in all cases: cell-based
[1] = target: T1, CRBN (Homo sapiens, UniProt Q96SW2); test: CRBN inverse MAPPIT competition assay against TMP-lenalidomide hybrid ligand; conditions: 300 nM TMP-lenalidomide; leptin; HEK293T; specificity versus gp130-REM2 control (CTRL)
T1 construct: expressed in transfected cells; host or cells: HEK293T
From the text: As in Example 6, HEK293T cells were transfected with a plasmid encoding E. coli Dihydrofolate Reductase (DHFR) fused to the tails of the cytoplasmic domain of a mutated leptin receptor (pCLG-DHFR), a plasmid encoding a CRBN prey fused to the gp130 cytoplasmic domain or a plasmid encoding a gp130-REM2 control fusion that can directly interact with the leptin receptor of the DHFR fusion protein, and the STAT3 responsive pXP2d2-rPAPI-luciferase reporter plasmid—using a standard transfection method, as described (Lievens, et al. “Array MAPPIT: high-throughput interactome analysis in mammalian cells.” Journal of Proteome Research 8.2 (2009): 877-886). […] Data points in FIGS. 10A-B represent the average luciferase activity of triplicate samples derived from cells treated with leptin+test compound for the REM2 control (CTRL) or cells treated with leptin+hybrid ligand+test compound (CRBN) relative to leptin (CTRL) or leptin+hybrid ligand (CRBN) only treated samples (the signals obtained in absence of added test compound for both cases is set at 100% of luciferase activity on y-axis). Error bars represent standard deviations. Curves were fit using 4-parameter nonlinear regression in […] PRISM software.

[2] = target: T2, DCAF15-RBM39 binding (Homo sapiens, UniProt Q66K64); test: MAPPIT inverse assay, RBM39 receptor fusion + DCAF15 gp130 fusion; conditions: inverse configuration; leptin; HEK293T
T2 construct: expressed in transfected cells; host or cells: HEK293T
From the text: (§1) In this example, MAPPIT forward and inverse assays were developed that enable the assessment of sulfonamides to induce binding between DCAF15 and RBM39. […] The experimental setup was according to the procedure described before, using the following plasmid constructs encoding the MAPPIT receptor and gp130 fusions: in forward mode the DCAF15 bait was fused to a MAPPIT chimeric receptor construct containing the extracellular leptin receptor domain (pCLL-DCAF15) and RBM39 proteins was fused to the partial gp130 domain; in inverse mode, the DCAF15 bait was fused to the partial gp130 domain and RBM39 was fused to a MAPPIT transmembrane receptor (pCLG-RBM39). […] Cells were treated with leptin without or with the indicated dose of test compound (indisulam, tasisulam, CQS or E7820) at 24 hours after transfection. Luciferase activity was measured 24 hours after test compound treatment using the Luciferase Assay System kit (PROMEGA, Madison, Wis.) with an Ensight plate reader (PERKIN ELMER LIFE SCIENCES, Waltham, Mass.). […] Error bars represent standard deviations. […] The results shown in FIG. 12 indicate that only in the inverse assay mode sulfonamide-induced DCAF15-RBM39 binding can be observed.

[3] = target: T2, DCAF15-RBM39 binding; test: MAPPIT forward assay, DCAF15 receptor fusion + RBM39 gp130 fusion; conditions: forward configuration; leptin; HEK293T
From the text: as §1

| SMILES | competition with TMP-lenalidomide hybrid ligand for binding to CRBN (inhibition of luciferase signal) [1] | sulfonamide-induced recruitment of RBM39 to DCAF15 (luciferase signal) [2] | sulfonamide-induced recruitment of RBM39 to DCAF15 (luciferase signal) [3] |
| --- | --- | --- | --- |
| Cc1nc2cccc(N)c2c(=O)n1C1CCC(=O)NC1=O (stereo not drawn) [CC-122] | specifically inhibit hybrid-ligand induced luciferase reporter activation in a dose-dependent manner; also recorded: competed efficiently |  |  |
| Cc1ccc(NS(=O)(=O)c2cccc(C#N)c2)c2[nH]cc(C#N)c12 [E7820] |  | dose-dependent luciferase signal increase |  |
| Nc1cccc2c1C(=O)N(C1CCC(=O)NC1=O)C2=O (stereo not drawn) [pomalidomide] | specifically inhibit hybrid-ligand induced luciferase reporter activation in a dose-dependent manner; also recorded: competed efficiently |  |  |
| O=C(NS(=O)(=O)c1ccc(Br)s1)c1ccc(Cl)cc1Cl [tasisulam] |  | dose-dependent luciferase signal increase |  |
| NS(=O)(=O)c1ccc(S(=O)(=O)Nc2cccc3c(Cl)c[nH]c23)cc1 [indisulam] |  | dose-dependent luciferase signal increase | only in inverse mode could a dose-dependent luciferase signal increase be observed |

From patent US20230026360A1, “DETECTION OF MOLECULAR INTERACTIONS” (Orionis Biosciences, Inc., priority 2019, published 2023)
